# From patent US20030139361A1, “Drug for gene therapy” (priority 2000, published 2003)
# Tested on: spleen cells derived from PVG rat and mitomycin-treated DA rat
# Test: Lymphocyte mixed culture test (BrdU incorporation)
# Format: cell-based
# Details: 4 days culture, BrdU 10 μM for last 16 hours; FIG. 2
# Procedure: To study the immunosuppressive activity of the human IDO protein prepared in Example 10, a lymphocyte mixed culture test was carried out. The spleen cells derived from a non-treated PVG rat and the spleen cells derived from a DA rat treated with 25 μg/ml of mitomycin (SIGMA-Aldrich Corporation) were seeded on a U bottom 96-well plate (NUNC Inc.) at 5×10^4/well and at 8×10^6/well, respectively. The IDO protein was then added and culturing was done for 4 days. Sixteen hours before the finish of culturing 5-bromo-2′deoxyuridine (BrdU) was added at a final concentration of 10 μM. The amount of BrdU incorporated into the intracellular DNA was quantified using a BrdU Labeling & Detection Kit III (Roche Diagnostics Inc.).
substance,measurement,value
"human IDO protein: Recombinant human indoleamine 2,3-dioxygenase protein prepared in Example 10 from E. coli",immunosuppressive activity (amount of BrdU incorporated into intracellular DNA),showed the immunosuppressive activity in a concentration-dependent manner
